# Measurements from patent US20230051589A1, “COMPOUNDS AND COMPOSITIONS FOR TREATING CONDITIONS ASSOCIATED WITH NLRP ACTIVITY” (Novartis AG, priority 2018, published 2023).
# Tested on: IL-1β production in PMA-differentiated THP-1 cells
# Experiment: IL-1β production in PMA-differentiated THP-1 cells stimulated with gramicidin (hTHP-1 assay, 2% fetal bovine serum; Procedures 1-3)
# Format: cell-based, human
# Settings: Homo sapiens, THP-1, Table B1; hTHP-1 assay containing 2% fetal bovine serum, gramicidin stimulation, IL-1β readout; read-out: hTHP-1 IC50 (average)
# How it was run: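 IL-1β released into supernatants was read by HTRF after 2 h gramicidin (5 μM) challenge. Before challenge, compounds (3-fold dilutions, top 100 μM, 0.37% DMSO) were given 1 h on THP-1 cells differentiated with PMA (20 ng/ml, 16-18 h) and held in 2% FBS medium.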
row,IC50 [nM],SMILES
5,40 to 200,"COC(C)(C)c1ncc(S(N)(=O)=NC(=O)Nc2c3c(cc4c2CCC4)CCC3)s1 (stereo not drawn) [Example 295, N′-((1,2,3,5,6,7-hexahydro-s-indacen-4-yl)carbamoyl)-2-(2-methoxypropan-2-yl)-thiazole-5-sulfonimidamide]"

# Same assay, conditions: Homo sapiens, THP-1, hTHP-1 assay containing 2% fetal bovine serum, Table B2, class symbols; read-out: IC50
row,IC50 [nM],SMILES
1,200 to 1000,C[C@@](O)(CO)c1ncc([S@](N)(=O)=NC(=O)Nc2c3c(cc4c2CC4)CCC3)s1 [Compound 919a]
2,8 to 40,C[C@@](O)(CO)c1ncc([S@@](N)(=O)=NC(=O)Nc2c3c(cc4c2CC4)CCC3)s1 [Compound 919b]
3,8 to 40,C[C@@](O)(CO)c1ncc(S(N)(=O)=NC(=O)Nc2c3c(cc4c2CC4)CCC3)s1 (stereo partly drawn) [Compound 919c]
4,200 to 1000,C[C@](O)(CO)c1ncc([S@](N)(=O)=NC(=O)Nc2c3c(cc4c2CC4)CCC3)s1 [Compound 919d]
5,8 to 40,C[C@](O)(CO)c1ncc([S@@](N)(=O)=NC(=O)Nc2c3c(cc4c2CC4)CCC3)s1 [Compound 919e]
6,200 to 1000,C[C@@](O)(CO)c1ncc([S@@](N)(=O)=NC(=O)Nc2c3c(cc4c2C(=O)CC4)CCC3)s1 [Compound 920b]
7,40 to 200,C[C@](O)(CO)c1ncc(S(N)(=O)=NC(=O)Nc2c3c(cc4c2C(=O)CC4)CCC3)s1 (stereo partly drawn) [Compound 920c]
8,200 to 1000,C[C@@](O)(CO)c1ncc(S(N)(=O)=NC(=O)Nc2c3c(cc4c2C(=O)CC4)CCC3)s1 (stereo partly drawn) [Compound 920d]
9,5000 to 30000,N[S@@](=O)(=NC(=O)Nc1c2c(cc3c1CCC3)CCC2)c1ccc([C@H]2CCCN2)s1 [Compound 921a]
10,200 to 1000,N[S@](=O)(=NC(=O)Nc1c2c(cc3c1CCC3)CCC2)c1ccc([C@H]2CCCN2)s1 [Compound 921b]
11,1000 to 5000,N[S@@](=O)(=NC(=O)Nc1c2c(cc3c1CCC3)CCC2)c1ccc([C@@H]2CCCN2)s1 [Compound 921c]
12,200 to 1000,N[S@](=O)(=NC(=O)Nc1c2c(cc3c1CCC3)CCC2)c1ccc([C@@H]2CCCN2)s1 [Compound 921d]
13,200 to 1000,NS(=O)(=NC(=O)Nc1c2c(cc3c1CCC3)CCC2)c1ccc([C@H]2CCCN2)s1 (stereo partly drawn) [Compound 921e]

# Further lines, the compound ahead of its results:
row,SMILES,IC50 [nM]
1,CCn1ccc(S(N)(=O)=NC(=O)Nc2c3c(cc4c2CC4)CCC3)n1 (stereo not drawn) [Compound 916],200 to 1000
2,CCn1ccc([S@](N)(=O)=NC(=O)Nc2c3c(cc4c2CC4)CCC3)n1 [Compound 916a],40 to 200
3,CCn1ccc([S@@](N)(=O)=NC(=O)Nc2c3c(cc4c2CC4)CCC3)n1 [Compound 916b],1000 to 5000
4,NS(=O)(=NC(=O)Nc1c2c(cc3c1CCC3)CCC2)c1ccc(-c2ccccc2)s1 (stereo not drawn) [Compound 917],5000 to 30000
5,"CC(C)(O)c1csc(S(N)(=O)=NC(=O)Nc2c3c(cc4c2CCC4=O)CCC3)c1 (stereo not drawn) [Example 434, 4-(2-Hydroxypropan-2-yl)-N′-((1-oxo-1,2,3,5,6,7-hexahydro-s-indacen-4-yl)carbamoyl)thiophene-2-sulfonimidamide]",200 to 1000
6,"CC(C)(O)c1ncc(S(N)(=O)=NC(=O)Nc2cc3c(c4c2CCC4=O)CCC3)s1 (stereo not drawn) [Example 435, 2-(2-hydroxypropan-2-yl)-N′-((1-oxo-1,2,3,6,7,8-hexahydro-as-indacen-4-yl)carbamoyl)thiazole-5-sulfonimidamide]",5000 to 30000
7,"CC(C)(O)c1cc(F)c(S(N)(=O)=NC(=O)Nc2c3c(cc4c2CCC4=O)CCC3)s1 (stereo not drawn) [Example 438, 3-Fluoro-5-(2-hydroxypropan-2-yl)-N′-((1-oxo-1,2,3,5,6,7-hexahydro-s-indacen-4-yl)carbamoyl)thiophene-2-sulfonimidamide]",200 to 1000
8,"CC(C)(O)c1nc(S(N)(=O)=NC(=O)Nc2c3c(cc4c2CCC4)CCC3)cs1 (stereo not drawn) [Example 440, N-((1,2,3,5,6,7-hexahydro-s-indacen-4-yl)carbamoyl)-2-(2-hydroxypropan-2-yl)thiazole-4-sulfonimidamide]",200 to 1000
9,"NS(=O)(=NC(=O)Nc1c2c(cc3c1CCC3)CCC2)c1cnn2c1OC[C@H](O)C2 (stereo partly drawn) [Example 441, (6R)-N′-((1,2,3,5,6,7-hexahydro-s-indacen-4-yl)carbamoyl)-6-hydroxy-6,7-dihydro-5H-pyrazolo[5,1-b][1,3]oxazine-3-sulfonimidamide]",200 to 1000
10,"CC(C)n1nc(S(N)(=O)=NC(=O)Nc2c3c(c(C#N)c4c2CCC4)CCC3)cc1CO (stereo not drawn) [Example 442, N′-((8-cyano-1,2,3,5,6,7-hexahydro-s-indacen-4-yl)carbamoyl)-5-(hydroxymethyl)-1-isopropyl-1H-pyrazole-3-sulfonimidamide]",200 to 1000
11,"NS(=O)(=NC(=O)Nc1c2c(cc3c1CCC3)CCC2)c1ccc(C2CCN2)cc1 (stereo not drawn) [Example 444, 4-(Azetidin-2-yl)-N′-((1,2,3,5,6,7-hexahydro-s-indacen-4-yl)carbamoyl)benzenesulfonimidamide]",1000 to 5000
12,"CN[C@H]1COc2c(S(N)(=O)=NC(=O)Nc3c4c(cc5c3CCC5)CCC4)cnn2C1 (stereo partly drawn) [Example 445, (6R)-N′-((1,2,3,5,6,7-hexahydro-s-indacen-4-yl)carbamoyl)-6-(methylamino)-6,7-dihydro-5H-pyrazolo[5,1-b][3]oxazine-3-sulfonimidamide]",40 to 200
13,"CN(C)Cc1ccc(S(N)(=O)=NC(=O)Nc2c3c(cc4c2CC4)CCC3)cc1 (stereo not drawn) [Example 446, 4-((Dimethylamino)methyl)-N′-(2,4,5,6-tetrahydro-1H-cyclobuta[f]inden-3-ylcarbamoyl)benzenesulfonimidamide]",200 to 1000
14,"CNCc1ccc(S(N)(=O)=NC(=O)Nc2c3c(cc4c2CC4)CCC3)cc1 (stereo not drawn) [Example 448, 4-((Methylamino)methyl)-N′-((2,4,5,6-tetrahydro-1H-cyclobuta[f]inden-3-yl)carbamoyl)benzenesulfonimidamide]",1000 to 5000

# Same assay, conditions: Homo sapiens, THP-1, hTHP-1 assay containing 2% fetal bovine serum, Table B2, given as bound; read-out: IC50
row,IC50 [nM],SMILES
1,> 30000,C[C@@](O)(CO)c1ncc([S@](N)(=O)=NC(=O)Nc2c3c(cc4c2C(=O)CC4)CCC3)s1 [Compound 920a]

# Same assay, conditions: Table B1; hTHP-1 assay containing 2% fetal bovine serum, gramicidin stimulation, IL-1β readout; read-out: hTHP-1 IC50 (average)
row,IC50 [nM],SMILES
1,8 to 40,"CC(C)(O)c1ncc([S@](N)(=O)=NC(=O)Nc2c3c(cc4c2CC4)CCC3)s1 [Example 224, (R)-2-(2-hydroxypropan-2-yl)-N′-((2,4,5,6-tetrahydro-1H-cyclobuta[f]inden-3-yl)carbamoyl) thiazole-5-sulfonimidamide]"
2,1000 to 5000,"CC(C)(O)c1ncc(S(N)(=O)=NC(=O)Nc2c3c(cc4c2CC4)CCC3)s1 [Example 225, (R)- and (S)-2-(2-hydroxypropan-2-yl)-N′-((2,4,5,6-tetrahydro-1H-cyclobuta[f]inden-3-yl)carbamoyl)thiazole-5-sulfonimidamide]"
3,5000 to 30000,"CNS(=O)(=NC(=O)Nc1c2c(cc3c1CCC3)CCC2)c1cnc(C(C)(C)O)s1 (stereo not drawn) [Example 247, N′-((1,2,3,5,6,7-hexahydro-s-indacen-4-yl)carbamoyl)-2-(2-hydroxypropan-2-yl)-N-methylthiazole-5-sulfon-imidamide]"
4,40 to 200,"CC(c1ccc(S(N)(=O)=NC(=O)Nc2c3c(cc4c2CCC4)CCC3)cc1)N(C)C (stereo not drawn) [Example 266, 4-(1-(Dimethylamino)ethyl)-N′-(1,2,3,5,6,7-hexahydro-s-indacen-4-ylcarbamoyl)-benzenesulfonimidamide]"
5,40 to 200,"CC1CCc2c1cc1c(c2NC(=O)N=S(N)(=O)c2cnc(C(C)(C)O)s2)CCC1 (stereo not drawn) [Example 291, 2-(2-Hydroxypropan-2-yl)-N′-((1-methyl-1,2,3,5,6,7-hexahydro-s-indacen-4-yl)-carbamoyl)thiazole-5-sulfon-imidamide]"

# Same assay, conditions: hTHP-1 assay containing 2% fetal bovine serum, Table B2, class symbols; read-out: IC50
row,IC50 [nM],SMILES
1,8 to 40,"CC(O)(CO)c1ncc(S(N)(=O)=NC(=O)Nc2c3c(cc4c2CCC4)CCC3)s1 (stereo not drawn) [Example 436, 2-(1,2-Dihydroxypropan-2-yl)-N′-((1,2,3,5,6,7-hexahydro-s-indacen-4-yl)carbamoyl)thiazole-5-sulfonimidamide]"
2,1000 to 5000,"CC(O)(CO)c1ncc(S(N)(=O)=NC(=O)Nc2c3c(c(C#N)c4c2CCC4)CCC3)s1 (stereo not drawn) [Example 437, N′-((8-cyano-1,2,3,5,6,7-hexahydro-s-indacen-4-yl)carbamoyl)-2-(1,2-dihydroxypropan-2-yl)thiazole-5-sulfomidamide]"
3,40 to 200,"CC(O)(CO)c1cc(F)c(S(N)(=O)=NC(=O)Nc2c3c(c(C#N)c4c2CCC4)CCC3)s1 (stereo not drawn) [Example 443, N′-((8-cyano-1,2,3,5,6,7-hexahydro-s-indacen-4-yl)carbamoyl)-5-(1,2-dihydroxypropan-2-yl)-3-fluorothiophene-2-sulfonimidamide]"
4,1000 to 5000,"NS(=O)(=NC(=O)Nc1c2c(cc3c1CCC3)CCC2)c1ccc(C2CCCN2)cc1 (stereo not drawn) [Example 447, N′-((1,2,3,5,6,7-hexahydro-s-indacen-4-yl)carbamoyl)-4-(pyrrolidin-2-yl)benzenesulfonimidamide]"
